Reference: ChEMBL document CHEMBL4507276 (2021)

Columns and labels:
[1] = biological target: Serine/threonine-protein kinase VRK2 (Homo sapiens) (UniProt Q86Y07); conditions: Compound concentration 1000.0 nM
[2] = biological target: Macrophage-stimulating protein receptor (Homo sapiens) (UniProt Q04912); assay: MST1R Invitrogen selectivity data (BI); conditions: Compound concentration 3.0 uM
[3] = biological target: Calcium/calmodulin-dependent protein kinase type II subunit alpha (Homo sapiens) (UniProt Q9UQM7); assay: CAMK2ALPHA(H) Cerep selectivity data (BI); conditions: Compound concentration 20.0 uM
Calcium/calmodulin-dependent protein kinase type II subunit alpha (Homo sapiens), sequence (Q9UQM7 whole entry): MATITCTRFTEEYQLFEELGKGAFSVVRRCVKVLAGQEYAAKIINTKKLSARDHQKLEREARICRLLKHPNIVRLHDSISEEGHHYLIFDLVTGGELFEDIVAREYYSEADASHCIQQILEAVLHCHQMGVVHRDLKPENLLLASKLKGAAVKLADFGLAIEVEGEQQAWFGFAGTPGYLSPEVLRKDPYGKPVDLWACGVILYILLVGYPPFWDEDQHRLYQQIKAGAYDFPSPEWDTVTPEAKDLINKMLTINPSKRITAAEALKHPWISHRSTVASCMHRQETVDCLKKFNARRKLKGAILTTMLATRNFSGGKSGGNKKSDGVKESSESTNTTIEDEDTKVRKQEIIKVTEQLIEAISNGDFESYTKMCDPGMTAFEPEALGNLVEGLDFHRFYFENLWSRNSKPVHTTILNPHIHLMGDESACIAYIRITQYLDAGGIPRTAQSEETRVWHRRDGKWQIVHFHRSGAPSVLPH

[4] = biological target: Cyclin-dependent kinase 5/CDK5 activator 1 (Homo sapiens) (UniProt Q00535+Q15078); assay: CDK5/P35 Invitrogen selectivity data (BI); assay type: protein-complex assay; conditions: Compound concentration 3.0 uM
Cyclin-dependent kinase 5/CDK5 activator 1 (Homo sapiens), sequence (Q00535 whole entry): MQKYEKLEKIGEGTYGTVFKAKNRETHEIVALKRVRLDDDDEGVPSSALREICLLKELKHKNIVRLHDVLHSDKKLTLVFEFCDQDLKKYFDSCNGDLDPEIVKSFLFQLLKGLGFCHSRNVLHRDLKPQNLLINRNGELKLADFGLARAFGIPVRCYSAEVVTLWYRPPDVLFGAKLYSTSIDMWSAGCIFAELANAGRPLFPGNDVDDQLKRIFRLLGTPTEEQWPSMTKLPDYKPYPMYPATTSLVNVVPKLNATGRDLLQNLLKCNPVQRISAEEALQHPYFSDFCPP
Cyclin-dependent kinase 5/CDK5 activator 1 (Homo sapiens), sequence (Q15078 99-307 partner limits assumed): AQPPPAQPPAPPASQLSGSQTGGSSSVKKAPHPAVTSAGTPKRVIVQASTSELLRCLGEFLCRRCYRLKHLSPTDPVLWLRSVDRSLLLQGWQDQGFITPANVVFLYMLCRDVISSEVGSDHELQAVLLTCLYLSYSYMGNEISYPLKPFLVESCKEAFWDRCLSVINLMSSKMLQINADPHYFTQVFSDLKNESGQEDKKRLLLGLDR

[5] = biological target: T1, Alpha-1B adrenergic receptor (Homo sapiens) (UniProt P35368); assay: ALPHA1B/HU Cerep selectivity data (BI); conditions: Compound concentration 20.0 uM
T1 sequence (whole entry): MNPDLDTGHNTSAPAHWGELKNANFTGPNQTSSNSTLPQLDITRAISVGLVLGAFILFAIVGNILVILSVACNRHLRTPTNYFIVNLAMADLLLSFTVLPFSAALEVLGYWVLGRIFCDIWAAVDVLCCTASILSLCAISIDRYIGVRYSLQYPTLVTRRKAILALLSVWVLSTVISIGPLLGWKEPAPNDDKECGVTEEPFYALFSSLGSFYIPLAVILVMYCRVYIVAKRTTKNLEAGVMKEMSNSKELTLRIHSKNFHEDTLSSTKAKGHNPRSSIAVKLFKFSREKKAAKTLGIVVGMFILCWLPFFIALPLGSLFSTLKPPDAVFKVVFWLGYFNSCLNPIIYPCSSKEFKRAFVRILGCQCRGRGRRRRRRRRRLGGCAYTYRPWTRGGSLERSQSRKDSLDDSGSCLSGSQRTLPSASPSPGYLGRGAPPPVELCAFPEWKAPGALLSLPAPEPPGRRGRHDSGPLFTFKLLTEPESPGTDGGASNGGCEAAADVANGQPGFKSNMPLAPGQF

[6] = biological target: Mitogen-activated protein kinase 1 (Homo sapiens) (UniProt P28482); assay: ERK2(P42MAPK)_CE Cerep selectivity data (BI); conditions: Compound concentration 20.0 uM
Mitogen-activated protein kinase 1 (Homo sapiens), sequence (P28482 whole entry): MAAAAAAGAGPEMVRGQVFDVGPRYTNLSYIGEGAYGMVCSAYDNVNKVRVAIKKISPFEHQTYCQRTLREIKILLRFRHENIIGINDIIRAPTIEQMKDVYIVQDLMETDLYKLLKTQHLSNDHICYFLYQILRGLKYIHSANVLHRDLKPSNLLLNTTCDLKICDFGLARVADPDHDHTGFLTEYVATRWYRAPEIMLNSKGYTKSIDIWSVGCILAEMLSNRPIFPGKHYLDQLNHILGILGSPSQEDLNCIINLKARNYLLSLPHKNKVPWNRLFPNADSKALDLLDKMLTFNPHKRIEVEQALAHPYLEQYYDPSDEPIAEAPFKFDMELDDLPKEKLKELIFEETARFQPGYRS

[7] = biological target: Kappa-type opioid receptor (Homo sapiens) (UniProt P41145); assay: KAPPA/HU Eurofins-Panlabs selectivity data (BI); conditions: Compound concentration 10.0 uM
Kappa-type opioid receptor (Homo sapiens), sequence (P41145 whole entry, canonical isoform): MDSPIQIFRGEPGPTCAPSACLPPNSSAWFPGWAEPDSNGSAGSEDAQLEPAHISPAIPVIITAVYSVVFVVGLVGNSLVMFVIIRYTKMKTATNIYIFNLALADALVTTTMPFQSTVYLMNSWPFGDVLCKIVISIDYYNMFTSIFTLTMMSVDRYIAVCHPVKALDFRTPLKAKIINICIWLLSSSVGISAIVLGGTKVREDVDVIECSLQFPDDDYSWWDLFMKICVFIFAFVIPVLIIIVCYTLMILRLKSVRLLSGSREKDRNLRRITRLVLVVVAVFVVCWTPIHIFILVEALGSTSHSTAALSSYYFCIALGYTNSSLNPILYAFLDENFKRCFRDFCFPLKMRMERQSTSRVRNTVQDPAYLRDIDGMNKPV

[8] = biological target: Casein kinase I isoform gamma-1 (Homo sapiens) (UniProt Q9HCP0); assay: CSNK1G1 Invitrogen selectivity data (BI); conditions: Compound concentration 3.0 uM
Casein kinase I isoform gamma-1 (Homo sapiens), sequence (Q9HCP0 whole entry, looked up, canonical isoform): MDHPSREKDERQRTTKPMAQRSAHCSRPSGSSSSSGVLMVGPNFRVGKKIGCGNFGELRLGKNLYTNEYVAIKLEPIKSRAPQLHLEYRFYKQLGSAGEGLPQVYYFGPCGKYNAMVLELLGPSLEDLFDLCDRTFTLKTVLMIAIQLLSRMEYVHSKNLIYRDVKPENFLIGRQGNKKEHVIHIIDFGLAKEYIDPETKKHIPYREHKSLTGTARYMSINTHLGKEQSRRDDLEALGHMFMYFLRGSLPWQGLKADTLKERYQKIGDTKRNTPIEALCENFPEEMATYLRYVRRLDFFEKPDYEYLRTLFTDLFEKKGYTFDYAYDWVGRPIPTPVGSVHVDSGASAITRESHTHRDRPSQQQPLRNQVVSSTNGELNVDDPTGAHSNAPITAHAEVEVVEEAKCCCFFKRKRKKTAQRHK

[9] = biological target: Tyrosine-protein kinase BTK (Homo sapiens) (UniProt Q06187); assay: BTK Invitrogen selectivity data (BI); conditions: Compound concentration 3.0 uM
Tyrosine-protein kinase BTK (Homo sapiens), sequence (Q06187 whole entry): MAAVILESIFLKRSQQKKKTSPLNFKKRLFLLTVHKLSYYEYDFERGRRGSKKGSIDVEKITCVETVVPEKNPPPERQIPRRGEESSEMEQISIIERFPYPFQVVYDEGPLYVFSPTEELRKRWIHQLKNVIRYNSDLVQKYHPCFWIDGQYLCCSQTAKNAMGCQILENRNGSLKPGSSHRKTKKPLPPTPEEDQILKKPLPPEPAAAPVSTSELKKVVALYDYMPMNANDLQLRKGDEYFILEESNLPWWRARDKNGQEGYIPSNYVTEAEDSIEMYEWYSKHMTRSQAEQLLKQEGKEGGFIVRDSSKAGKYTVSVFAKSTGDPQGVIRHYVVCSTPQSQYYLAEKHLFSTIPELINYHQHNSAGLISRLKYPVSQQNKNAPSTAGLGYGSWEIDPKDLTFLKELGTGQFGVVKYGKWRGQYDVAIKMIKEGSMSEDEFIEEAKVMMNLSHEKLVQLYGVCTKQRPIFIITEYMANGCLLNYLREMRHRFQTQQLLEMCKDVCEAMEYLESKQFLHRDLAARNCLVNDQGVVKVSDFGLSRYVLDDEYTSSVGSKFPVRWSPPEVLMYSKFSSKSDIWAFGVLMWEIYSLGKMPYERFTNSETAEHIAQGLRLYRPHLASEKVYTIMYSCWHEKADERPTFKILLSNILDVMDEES

[10] = biological target: Histamine H1 receptor (Homo sapiens) (UniProt P35367); assay: H1/H Eurofins-Panlabs selectivity data (BI); conditions: Compound concentration 10.0 uM
Histamine H1 receptor (Homo sapiens), sequence (P35367 whole entry): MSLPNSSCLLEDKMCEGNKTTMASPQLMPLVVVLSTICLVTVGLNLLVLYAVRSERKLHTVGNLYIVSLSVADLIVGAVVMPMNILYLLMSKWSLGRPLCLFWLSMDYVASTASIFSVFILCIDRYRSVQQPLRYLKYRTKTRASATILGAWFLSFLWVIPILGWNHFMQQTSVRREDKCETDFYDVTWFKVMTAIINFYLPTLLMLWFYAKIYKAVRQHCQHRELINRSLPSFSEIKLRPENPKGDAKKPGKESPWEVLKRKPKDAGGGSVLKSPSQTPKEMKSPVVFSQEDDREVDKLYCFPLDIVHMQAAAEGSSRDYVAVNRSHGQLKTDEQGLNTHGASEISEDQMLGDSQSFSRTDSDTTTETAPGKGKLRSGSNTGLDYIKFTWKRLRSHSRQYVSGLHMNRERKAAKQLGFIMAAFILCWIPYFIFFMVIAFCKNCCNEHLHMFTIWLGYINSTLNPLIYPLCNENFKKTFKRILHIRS

[11] = biological target: Focal adhesion kinase 1 (Homo sapiens) (UniProt Q05397); assay: PTK2 Invitrogen selectivity data (BI); conditions: Compound concentration 3.0 uM
[12] = biological target: T2, Tyrosine-protein kinase receptor TYRO3 (Homo sapiens) (UniProt Q06418); assay: TYRO3 Invitrogen selectivity data (BI); conditions: Compound concentration 3.0 uM
T2 sequence (whole entry): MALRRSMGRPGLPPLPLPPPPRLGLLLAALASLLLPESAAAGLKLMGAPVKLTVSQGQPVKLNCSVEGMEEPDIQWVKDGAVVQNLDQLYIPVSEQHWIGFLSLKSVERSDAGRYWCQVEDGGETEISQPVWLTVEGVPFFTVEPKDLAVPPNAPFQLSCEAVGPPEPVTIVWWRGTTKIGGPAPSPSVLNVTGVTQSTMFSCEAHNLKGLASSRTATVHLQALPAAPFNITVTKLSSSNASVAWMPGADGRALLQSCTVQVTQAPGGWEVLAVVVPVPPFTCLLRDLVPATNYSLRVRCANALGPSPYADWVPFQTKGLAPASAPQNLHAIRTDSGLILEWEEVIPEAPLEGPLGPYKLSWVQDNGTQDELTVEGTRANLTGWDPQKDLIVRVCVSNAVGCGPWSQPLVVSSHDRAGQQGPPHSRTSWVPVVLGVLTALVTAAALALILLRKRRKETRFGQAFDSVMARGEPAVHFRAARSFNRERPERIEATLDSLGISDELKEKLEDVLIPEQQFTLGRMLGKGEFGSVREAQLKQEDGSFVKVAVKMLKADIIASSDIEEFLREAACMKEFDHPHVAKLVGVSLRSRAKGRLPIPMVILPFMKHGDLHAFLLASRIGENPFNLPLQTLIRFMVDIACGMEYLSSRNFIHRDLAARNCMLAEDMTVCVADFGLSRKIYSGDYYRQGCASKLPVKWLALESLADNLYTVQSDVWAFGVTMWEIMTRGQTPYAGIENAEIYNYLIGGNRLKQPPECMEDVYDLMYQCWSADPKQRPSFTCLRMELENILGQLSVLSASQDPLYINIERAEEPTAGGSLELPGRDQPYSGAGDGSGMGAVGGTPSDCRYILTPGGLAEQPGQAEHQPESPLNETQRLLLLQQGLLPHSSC

Measured: residual activity

Macrophage-stimulating protein receptor (Homo sapiens), sequence (Q04912 25-304 limits assumed): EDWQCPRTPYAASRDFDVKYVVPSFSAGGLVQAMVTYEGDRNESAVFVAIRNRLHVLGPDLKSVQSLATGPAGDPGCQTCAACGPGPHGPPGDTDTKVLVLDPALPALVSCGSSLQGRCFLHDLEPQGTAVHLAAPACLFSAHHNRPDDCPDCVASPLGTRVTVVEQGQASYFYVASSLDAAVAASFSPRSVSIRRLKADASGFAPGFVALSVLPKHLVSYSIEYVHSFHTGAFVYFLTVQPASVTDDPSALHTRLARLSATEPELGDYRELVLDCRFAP
Macrophage-stimulating protein receptor (Homo sapiens), sequence (Q04912 310-1400 limits assumed): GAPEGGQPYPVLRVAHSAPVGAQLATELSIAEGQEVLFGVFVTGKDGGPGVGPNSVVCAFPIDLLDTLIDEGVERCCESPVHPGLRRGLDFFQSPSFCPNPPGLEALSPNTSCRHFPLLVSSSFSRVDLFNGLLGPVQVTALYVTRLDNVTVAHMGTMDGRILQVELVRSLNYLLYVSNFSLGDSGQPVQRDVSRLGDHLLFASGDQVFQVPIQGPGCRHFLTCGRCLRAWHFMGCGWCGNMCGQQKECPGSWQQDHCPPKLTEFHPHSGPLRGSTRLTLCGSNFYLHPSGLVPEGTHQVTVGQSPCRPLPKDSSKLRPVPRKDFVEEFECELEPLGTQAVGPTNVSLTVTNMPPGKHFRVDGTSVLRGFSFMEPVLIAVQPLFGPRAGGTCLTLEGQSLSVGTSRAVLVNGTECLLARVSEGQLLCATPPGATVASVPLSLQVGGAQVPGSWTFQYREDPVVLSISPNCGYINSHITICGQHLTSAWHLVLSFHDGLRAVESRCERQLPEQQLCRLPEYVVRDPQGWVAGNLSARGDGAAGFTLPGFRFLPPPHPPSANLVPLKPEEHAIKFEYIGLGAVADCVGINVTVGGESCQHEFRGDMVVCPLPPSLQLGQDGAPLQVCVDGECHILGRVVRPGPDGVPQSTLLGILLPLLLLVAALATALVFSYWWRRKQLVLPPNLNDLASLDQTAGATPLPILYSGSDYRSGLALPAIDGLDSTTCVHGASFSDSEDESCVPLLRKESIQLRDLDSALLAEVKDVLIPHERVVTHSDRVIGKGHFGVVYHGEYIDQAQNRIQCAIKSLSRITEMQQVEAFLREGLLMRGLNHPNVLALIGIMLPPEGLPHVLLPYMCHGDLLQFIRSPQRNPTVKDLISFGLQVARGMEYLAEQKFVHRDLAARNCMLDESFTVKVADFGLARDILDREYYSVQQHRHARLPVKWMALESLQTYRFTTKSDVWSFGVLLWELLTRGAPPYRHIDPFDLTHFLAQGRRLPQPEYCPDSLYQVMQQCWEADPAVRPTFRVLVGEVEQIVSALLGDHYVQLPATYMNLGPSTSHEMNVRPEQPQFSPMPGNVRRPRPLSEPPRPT

CN(C)C(=O)Cn1cc(-c2nc(C3(c4ccc(-c5cnc(N)nc5)cc4)CC3)no2)cn1 [BI 0153]
inactive: [1] 90%

CN(C)C(=O)Cn1cc(-c2nc([C@@](C)(c3ccc(-c4cnc(N)nc4)cc3)C3CC3)no2)cn1 [BI 665915]
inactive: [2] 95% | [3] 111% | [4] 100% | [5] 120% | [6] 114% | [7] 102% | [8] 97.5% | [9] 89.5% | [10] 103% | [11] 87.5% | [12] 96.5%
